Measured values taken from PubChem BioAssay (NCI).
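GI50 marks 50% less growth. TGI: concentration producing complete growth inhibition.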

What was measured:
Assay in all cases: NCI anticancer screen, dose series, 384-well format
[1] = tested on: MCF7 breast
[2] = tested on: HCT-116 colon
[3] = tested on: UACC-257 melanoma
[4] = tested on: NCI-H522 lung
[5] = tested on: SN12C renal
[6] = tested on: HOP-62 NSCLC
[7] = tested on: CAKI-1 renal
[8] = tested on: SK-MEL-2 melanoma
[9] = tested on: SF-295 CNS
[10] = tested on: SNB-75 CNS
[11] = tested on: HCT-15 colon
[12] = tested on: M14 melanoma
[13] = tested on: UO-31 renal
[14] = tested on: HT29 colon
[15] = tested on: MDA-MB-435 melanoma
[16] = tested on: T-47D breast
[17] = tested on: UACC-62 melanoma
[18] = tested on: NCI-H226 lung
[19] = tested on: OVCAR-4 ovarian
[20] = tested on: MDA-MB-468 breast
[21] = tested on: NCI-H23 lung
[22] = tested on: DU-145 prostate
[23] = tested on: BT-549 breast
[24] = tested on: SF-268 CNS
[25] = tested on: SR leukemia
[26] = tested on: U251 glioblastoma
[27] = tested on: TK-10 renal
[28] = tested on: HS 578T breast
[29] = tested on: NCI-H322M lung
[30] = tested on: NCI-H460 NSCLC
[31] = tested on: IGROV1 ovarian
[32] = tested on: SW-620 colon
[33] = tested on: KM12 colon
[34] = tested on: SF-539 CNS
[35] = tested on: PC-3 prostate
[36] = tested on: OVCAR-5 ovarian
[37] = tested on: MOLT-4 leukemia
[38] = tested on: MDA-MB-231 breast
[39] = tested on: HOP-92 NSCLC
[40] = tested on: 786-0 renal
[41] = tested on: RXF 393 renal
[42] = tested on: A498 renal
[43] = tested on: OVCAR-8 ovarian
[44] = tested on: EKVX NSCLC
[45] = tested on: OVCAR-3 ovarian
[46] = tested on: SK-MEL-5 melanoma
[47] = tested on: MALME-3M melanoma
[48] = tested on: ACHN renal
[49] = tested on: SK-OV-3 ovarian
[50] = tested on: SNB-19 CNS
[51] = tested on: A549 NSCLC
[52] = tested on: SK-MEL-28 melanoma
[53] = tested on: K-562 leukemia
[54] = tested on: COLO 205 colon
[55] = tested on: HL-60(TB) leukemia

Work on `COC1(C(=O)N[C@@H](C)c2ccc(-n3cc(F)cn3)nc2)CCC(c2nc(C)cc(Nc3cc(C)[nH]n3)n2)CC1` (stereo not given in full) yielded a GI50 [1] of 2 µM, a TGI [1] of 14.4 µM and a GI50 [2] of 4.04 µM. It also gave a TGI [2] of 17.3 µM, a GI50 [3] of 15.7 µM and a TGI [3] of 29.3 µM. For the same molecule, the GI50 [4] was 1.19 µM, the TGI [4] was 3.11 µM and the GI50 [5] was 0.493 µM. For the same molecule, the TGI [5] was 10 µM, the GI50 [6] was 1.46 µM and the TGI [6] was 6.13 µM. The GI50 [7] was 1.28 µM, the TGI [7] was 2.69 µM and the GI50 [8] was 11 µM. For the same molecule, the TGI [8] was 23.1 µM, the GI50 [9] was 1.39 µM and the TGI [9] was 4.21 µM. For the same molecule, the GI50 [10] was 0.285 µM, the TGI [10] was 1.32 µM and the GI50 [11] was 4.58 µM. It also gave a TGI [11] of 17.2 µM, a GI50 [12] of 11.3 µM and a TGI [12] of 23.4 µM. It also gave a GI50 [13] of 1.14 µM, a TGI [13] of 2.78 µM and a GI50 [14] of 4.94 µM. For the same molecule, the TGI [14] was 19.1 µM, the GI50 [15] was 11.7 µM and the TGI [15] was 24.1 µM. The GI50 [16] was 2.28 µM, the TGI [16] was 10.7 µM and the GI50 [17] was 5.55 µM. For the same molecule, the TGI [17] was 18.5 µM, the GI50 [18] was 0.246 µM and the TGI [18] was 2.08 µM. The GI50 [19] was 2.12 µM, the TGI [19] was 17.8 µM and the GI50 [20] was 1.74 µM. It also gave a TGI [20] of 4.8 µM, a GI50 [21] of 0.629 µM and a TGI [21] of 10.6 µM. It also gave a GI50 [22] of 1.72 µM, a TGI [22] of 4.04 µM and a GI50 [23] of 0.813 µM. It also gave a TGI [23] of 2.56 µM, a GI50 [24] of 1.38 µM and a TGI [24] of 3.69 µM. For the same molecule, the GI50 [25] was 2.13 µM, the TGI [25] was 5.27 µM and the GI50 [26] was 1.54 µM. For the same molecule, the TGI [26] was 12.3 µM, the GI50 [27] was 1.4 µM and the TGI [27] was 3.93 µM. It also gave a GI50 [28] of 0.253 µM, a TGI [28] of 1.58 µM and a GI50 [29] of 2.12 µM. For the same molecule, the TGI [29] was 11.1 µM, the GI50 [30] was 0.0527 µM and the TGI [30] was 13.7 µM. The GI50 [31] was 0.304 µM, the TGI [31] was 1.37 µM and the GI50 [32] was 2.58 µM. The TGI [32] was 17 µM, the GI50 [33] was 5.12 µM and the TGI [33] was 18.3 µM. It also gave a GI50 [34] of 0.226 µM, a TGI [34] of 1.12 µM and a GI50 [35] of 3.42 µM. It also gave a TGI [35] of 15.7 µM, a GI50 [36] of 2.31 µM and a TGI [36] of 13.9 µM. It also gave a GI50 [37] of 1.84 µM, a TGI [37] of 5.62 µM and a GI50 [38] of 2.6 µM. It also gave a TGI [38] of 14 µM, a GI50 [39] of 0.691 µM and a TGI [39] of 2.67 µM. For the same molecule, the GI50 [40] was 1.82 µM, the TGI [40] was 6.42 µM and the GI50 [41] was 0.138 µM. It also gave a TGI [41] of 0.671 µM, a GI50 [42] of 1.83 µM and a TGI [42] of 4.4 µM. It also gave a GI50 [43] of 3.35 µM, a TGI [43] of 12.9 µM and a GI50 [44] of 0.545 µM. For the same molecule, the TGI [44] was 2.29 µM, the GI50 [45] was 1.67 µM and the TGI [45] was 12.8 µM. It also gave a GI50 [46] of 2.3 µM, a TGI [46] of 11.2 µM and a GI50 [47] of 11.3 µM. The TGI [47] was 23.6 µM, the GI50 [48] was 0.896 µM and the TGI [48] was 4.45 µM. For the same molecule, the GI50 [49] was 0.605 µM, the TGI [49] was 2.64 µM and the GI50 [50] was 3.69 µM. For the same molecule, the TGI [50] was 18.1 µM, the GI50 [51] was 2.41 µM and the TGI [51] was 12 µM. It also gave a GI50 [52] of 12 µM, a TGI [52] of 24.5 µM and a GI50 [53] of 1.7 µM. For the same molecule, the TGI [53] was 11.6 µM, the GI50 [54] was 13.8 µM and the TGI [54] was 26.9 µM. The GI50 [55] was 5.4 µM and the TGI [55] was 18.5 µM.
